Measurements published in patent publication US20090022757A1, “Method for treating photoreceptor cell degeneration” (priority 2007, published 2009).

Legend:
[1] = system: rat retinal photoreceptor; assay: Electroretinogram of rats treated with different MNU dosages; conditions: for Number of Eyes with extinguished electroretinogram: n = 10
[2] = system: rat retinal photoreceptor cells; assay: Pathological examination (damage score) of retinal photoreceptor cells in rats treated with different MNU dosages

CN(N=O)C(N)=O [MNU, N-methyl-N-nitrosourea]
initial dosage that could cause maximum decrease of a-wave and b-wave amplitudes of electroretinogram [1]: 40 mg/kg
lowest dosage which could shorten the a-wave and b-wave latent period of rats electroretinogram to the greatest extent [1]: 40 mg/kg
a-wave amplitude of electroretinogram ([1]; MNU 30 mg/kg, 12 h): 42.24 ± 7.71
a-wave latent period of electroretinogram ([1]; MNU 30 mg/kg, 12 h): 17.97 ± 2.50
b-wave amplitude of electroretinogram ([1]; MNU 30 mg/kg, 12 h): 195.8 ± 33.45
b-wave latent period of electroretinogram ([1]; MNU 30 mg/kg, 12 h): 73.7 ± 6.94
Number of Eyes with extinguished electroretinogram ([1]; MNU 30 mg/kg, 12 h): 0
a-wave amplitude of electroretinogram ([1]; MNU 30 mg/kg, 1 d): 34.10 ± 6.35
a-wave latent period of electroretinogram ([1]; MNU 30 mg/kg, 1 d): 17.82 ± 2.59
b-wave amplitude of electroretinogram ([1]; MNU 30 mg/kg, 1 d): 153.6 ± 28.76
b-wave latent period of electroretinogram ([1]; MNU 30 mg/kg, 1 d): 70.41 ± 6.11
Number of Eyes with extinguished electroretinogram ([1]; MNU 30 mg/kg, 1 d): 0
a-wave amplitude of electroretinogram ([1]; MNU 30 mg/kg, 3 d): 33.14 ± 9.15
a-wave latent period of electroretinogram ([1]; MNU 30 mg/kg, 3 d): 17.44 ± 2.40
b-wave amplitude of electroretinogram ([1]; MNU 30 mg/kg, 3 d): 132.0 ± 24.85
b-wave latent period of electroretinogram ([1]; MNU 30 mg/kg, 3 d): 67.42 ± 7.05
Number of Eyes with extinguished electroretinogram ([1]; MNU 30 mg/kg, 3 d): 0
a-wave amplitude of electroretinogram ([1]; MNU 30 mg/kg, 7 d): 41.11 ± 10.14
a-wave latent period of electroretinogram ([1]; MNU 30 mg/kg, 7 d): 17.66 ± 2.55
b-wave amplitude of electroretinogram ([1]; MNU 30 mg/kg, 7 d): 156.5 ± 34.85
b-wave latent period of electroretinogram ([1]; MNU 30 mg/kg, 7 d): 70.28 ± 6.02
Number of Eyes with extinguished electroretinogram ([1]; MNU 30 mg/kg, 7 d): 0
a-wave amplitude of electroretinogram ([1]; MNU 30 mg/kg, 10 d): 44.17 ± 11.13
a-wave latent period of electroretinogram ([1]; MNU 30 mg/kg, 10 d): 17.30 ± 2.24
b-wave amplitude of electroretinogram ([1]; MNU 30 mg/kg, 10 d): 188.7 ± 27.7
b-wave latent period of electroretinogram ([1]; MNU 30 mg/kg, 10 d): 70.31 ± 7.29
Number of Eyes with extinguished electroretinogram ([1]; MNU 30 mg/kg, 10 d): 0
a-wave amplitude of electroretinogram ([1]; MNU 35 mg/kg, 12 h): 40.34 ± 8.37
a-wave latent period of electroretinogram ([1]; MNU 35 mg/kg, 12 h): 17.32 ± 5.87
b-wave amplitude of electroretinogram ([1]; MNU 35 mg/kg, 12 h): 185.3 ± 23.41
b-wave latent period of electroretinogram ([1]; MNU 35 mg/kg, 12 h): 73.61 ± 6.37
Number of Eyes with extinguished electroretinogram ([1]; MNU 35 mg/kg, 12 h): 0
a-wave amplitude of electroretinogram ([1]; MNU 35 mg/kg, 1 d): 33.20 ± 12.11
a-wave latent period of electroretinogram ([1]; MNU 35 mg/kg, 1 d): 16.98 ± 2.46
b-wave amplitude of electroretinogram ([1]; MNU 35 mg/kg, 1 d): 107.52 ± 17.38
b-wave latent period of electroretinogram ([1]; MNU 35 mg/kg, 1 d): 73.12 ± 6.69
Number of Eyes with extinguished electroretinogram ([1]; MNU 35 mg/kg, 1 d): 0
a-wave amplitude of electroretinogram ([1]; MNU 35 mg/kg, 3 d): 30.38 ± 9.61
a-wave latent period of electroretinogram ([1]; MNU 35 mg/kg, 3 d): 16.83 ± 2.62
b-wave amplitude of electroretinogram ([1]; MNU 35 mg/kg, 3 d): 104.88 ± 21.83
b-wave latent period of electroretinogram ([1]; MNU 35 mg/kg, 3 d): 68.15 ± 6.68
Number of Eyes with extinguished electroretinogram ([1]; MNU 35 mg/kg, 3 d): 0
a-wave amplitude of electroretinogram ([1]; MNU 35 mg/kg, 7 d): 36.75 ± 7.28
a-wave latent period of electroretinogram ([1]; MNU 35 mg/kg, 7 d): 17.77 ± 2.25
b-wave amplitude of electroretinogram ([1]; MNU 35 mg/kg, 7 d): 135.44 ± 22.58
b-wave latent period of electroretinogram ([1]; MNU 35 mg/kg, 7 d): 73.37 ± 7.73
Number of Eyes with extinguished electroretinogram ([1]; MNU 35 mg/kg, 7 d): 0
a-wave amplitude of electroretinogram ([1]; MNU 35 mg/kg, 10 d): 40.76 ± 8.92
a-wave latent period of electroretinogram ([1]; MNU 35 mg/kg, 10 d): 17.46 ± 2.41
b-wave amplitude of electroretinogram ([1]; MNU 35 mg/kg, 10 d): 168.7 ± 32.14
b-wave latent period of electroretinogram ([1]; MNU 35 mg/kg, 10 d): 73.51 ± 5.61
Number of Eyes with extinguished electroretinogram ([1]; MNU 35 mg/kg, 10 d): 0
a-wave amplitude of electroretinogram ([1]; MNU 40 mg/kg, 12 h): 17.18 ± 15.90
a-wave latent period of electroretinogram ([1]; MNU 40 mg/kg, 12 h): 10.53 ± 9.18
b-wave amplitude of electroretinogram ([1]; MNU 40 mg/kg, 12 h): 54.40 ± 46.33
b-wave latent period of electroretinogram ([1]; MNU 40 mg/kg, 12 h): 41.09 ± 35.82
Number of Eyes with extinguished electroretinogram ([1]; MNU 40 mg/kg, 12 h): 4
a-wave amplitude of electroretinogram ([1]; MNU 40 mg/kg, 1 d): 9.44 ± 12.38
a-wave latent period of electroretinogram ([1]; MNU 40 mg/kg, 1 d): 7.02 ± 9.15
b-wave amplitude of electroretinogram ([1]; MNU 40 mg/kg, 1 d): 23.09 ± 30.15
b-wave latent period of electroretinogram ([1]; MNU 40 mg/kg, 1 d): 27.85 ± 36.29
Number of Eyes with extinguished electroretinogram ([1]; MNU 40 mg/kg, 1 d): 6
a-wave amplitude of electroretinogram ([1]; MNU 40 mg/kg, 3 d): 3.62 ± 7.66
a-wave latent period of electroretinogram ([1]; MNU 40 mg/kg, 3 d): 3.17 ± 6.69
b-wave amplitude of electroretinogram ([1]; MNU 40 mg/kg, 3 d): 12.23 ± 26.02
b-wave latent period of electroretinogram ([1]; MNU 40 mg/kg, 3 d): 12.20 ± 4.24
Number of Eyes with extinguished electroretinogram ([1]; MNU 40 mg/kg, 3 d): 8
a-wave amplitude of electroretinogram ([1]; MNU 40 mg/kg, 7 d): 4.23 ± 9.27
a-wave latent period of electroretinogram ([1]; MNU 40 mg/kg, 7 d): 3.37 ± 7.15
b-wave amplitude of electroretinogram ([1]; MNU 40 mg/kg, 7 d): 13.14 ± 27.85
b-wave latent period of electroretinogram ([1]; MNU 40 mg/kg, 7 d): 12.33 ± 26.05
Number of Eyes with extinguished electroretinogram ([1]; MNU 40 mg/kg, 7 d): 8
a-wave amplitude of electroretinogram ([1]; MNU 40 mg/kg, 10 d): 9.54 ± 12.89
a-wave latent period of electroretinogram ([1]; MNU 40 mg/kg, 10 d): 6.64 ± 8.61
b-wave amplitude of electroretinogram ([1]; MNU 40 mg/kg, 10 d): 24.25 ± 31.58
b-wave latent period of electroretinogram ([1]; MNU 40 mg/kg, 10 d): 27.31 ± 35.56
Number of Eyes with extinguished electroretinogram ([1]; MNU 40 mg/kg, 10 d): 6
a-wave amplitude of electroretinogram ([1]; MNU 45 mg/kg, 12 h): 0
a-wave latent period of electroretinogram ([1]; MNU 45 mg/kg, 12 h): 6.60 ± 9.55
b-wave amplitude of electroretinogram ([1]; MNU 45 mg/kg, 12 h): 0
b-wave latent period of electroretinogram ([1]; MNU 45 mg/kg, 12 h): 25.08 ± 8.55
Number of Eyes with extinguished electroretinogram ([1]; MNU 45 mg/kg, 12 h): 6
a-wave amplitude of electroretinogram ([1]; MNU 45 mg/kg, 1 d): 0
a-wave latent period of electroretinogram ([1]; MNU 45 mg/kg, 1 d): 0
b-wave amplitude of electroretinogram ([1]; MNU 45 mg/kg, 1 d): 0
b-wave latent period of electroretinogram ([1]; MNU 45 mg/kg, 1 d): 0
Number of Eyes with extinguished electroretinogram ([1]; MNU 45 mg/kg, 1 d): 10
a-wave amplitude of electroretinogram ([1]; MNU 45 mg/kg, 3 d): 0
a-wave latent period of electroretinogram ([1]; MNU 45 mg/kg, 3 d): 0
b-wave amplitude of electroretinogram ([1]; MNU 45 mg/kg, 3 d): 0
b-wave latent period of electroretinogram ([1]; MNU 45 mg/kg, 3 d): 0
Number of Eyes with extinguished electroretinogram ([1]; MNU 45 mg/kg, 3 d): 10
a-wave amplitude of electroretinogram ([1]; MNU 45 mg/kg, 7 d): 0
a-wave latent period of electroretinogram ([1]; MNU 45 mg/kg, 7 d): 0
b-wave amplitude of electroretinogram ([1]; MNU 45 mg/kg, 7 d): 0
b-wave latent period of electroretinogram ([1]; MNU 45 mg/kg, 7 d): 0
Number of Eyes with extinguished electroretinogram ([1]; MNU 45 mg/kg, 7 d): 10
a-wave amplitude of electroretinogram ([1]; MNU 45 mg/kg, 10 d): 4.89 ± 10.48
a-wave latent period of electroretinogram ([1]; MNU 45 mg/kg, 10 d): 6.47 ± 7.33
b-wave amplitude of electroretinogram ([1]; MNU 45 mg/kg, 10 d): 11.31 ± 23.93
b-wave latent period of electroretinogram ([1]; MNU 45 mg/kg, 10 d): 14.42 ± 30.46
Number of Eyes with extinguished electroretinogram ([1]; MNU 45 mg/kg, 10 d): 8
a-wave amplitude of electroretinogram ([1]; MNU 50 mg/kg, 12 h): 0
a-wave latent period of electroretinogram ([1]; MNU 50 mg/kg, 12 h): 0
Number of Eyes with extinguished electroretinogram ([1]; MNU 50 mg/kg, 12 h): 10
a-wave amplitude of electroretinogram ([1]; MNU 50 mg/kg, 1 d): 0
a-wave latent period of electroretinogram ([1]; MNU 50 mg/kg, 1 d): 0
Number of Eyes with extinguished electroretinogram ([1]; MNU 50 mg/kg, 1 d): 10
a-wave amplitude of electroretinogram ([1]; MNU 50 mg/kg, 3 d): 0
a-wave latent period of electroretinogram ([1]; MNU 50 mg/kg, 3 d): 0
Number of Eyes with extinguished electroretinogram ([1]; MNU 50 mg/kg, 3 d): 10
a-wave amplitude of electroretinogram ([1]; MNU 50 mg/kg, 7 d): 0
a-wave latent period of electroretinogram ([1]; MNU 50 mg/kg, 7 d): 0
Number of Eyes with extinguished electroretinogram ([1]; MNU 50 mg/kg, 7 d): 10
a-wave amplitude of electroretinogram ([1]; MNU 50 mg/kg, 10 d): 0
a-wave latent period of electroretinogram ([1]; MNU 50 mg/kg, 10 d): 0
Number of Eyes with extinguished electroretinogram ([1]; MNU 50 mg/kg, 10 d): 10
minimum dosage that could cause damage to the entire outer nuclear layer cell of rat retinal [2]: 40 mg/kg
Damage score of rat retinal photoreceptor cells ([2]; MNU 30 mg/kg, 12 h): 0.20 ± 0.42
Damage score of rat retinal photoreceptor cells ([2]; MNU 30 mg/kg, 1 d): 0.40 ± 0.52
Damage score of rat retinal photoreceptor cells ([2]; MNU 30 mg/kg, 3 d): 0.40 ± 0.52
Damage score of rat retinal photoreceptor cells ([2]; MNU 30 mg/kg, 7 d): 0.20 ± 0.42
Damage score of rat retinal photoreceptor cells ([2]; MNU 30 mg/kg, 10 d): 0
Damage score of rat retinal photoreceptor cells ([2]; MNU 35 mg/kg, 12 h): 0.20 ± 0.42
Damage score of rat retinal photoreceptor cells ([2]; MNU 35 mg/kg, 1 d): 0.60 ± 0.52
Damage score of rat retinal photoreceptor cells ([2]; MNU 35 mg/kg, 3 d): 0.80 ± 0.42
Damage score of rat retinal photoreceptor cells ([2]; MNU 35 mg/kg, 7 d): 0.40 ± 0.52
Damage score of rat retinal photoreceptor cells ([2]; MNU 35 mg/kg, 10 d): 0
Damage score of rat retinal photoreceptor cells ([2]; MNU 40 mg/kg, 12 h): 1.00 ± 0.67
Damage score of rat retinal photoreceptor cells ([2]; MNU 40 mg/kg, 1 d): 2.20 ± 1.03
Damage score of rat retinal photoreceptor cells ([2]; MNU 40 mg/kg, 3 d): 4.60 ± 3.10
Damage score of rat retinal photoreceptor cells ([2]; MNU 40 mg/kg, 7 d): 7.60 ± 6.29
Damage score of rat retinal photoreceptor cells ([2]; MNU 40 mg/kg, 10 d): 7.40 ± 6.44
Damage score of rat retinal photoreceptor cells ([2]; MNU 45 mg/kg, 12 h): 1.6 ± 0.52
Damage score of rat retinal photoreceptor cells ([2]; MNU 45 mg/kg, 1 d): 4.00 ± 2.31
Damage score of rat retinal photoreceptor cells ([2]; MNU 45 mg/kg, 3 d): 6.80 ± 5.27
Damage score of rat retinal photoreceptor cells ([2]; MNU 45 mg/kg, 7 d): 9.60 ± 5.95
Damage score of rat retinal photoreceptor cells ([2]; MNU 45 mg/kg, 10 d): 9.20 ± 6.20
Damage score of rat retinal photoreceptor cells ([2]; MNU 50 mg/kg, 12 h): 2.40 ± 1.43
Damage score of rat retinal photoreceptor cells ([2]; MNU 50 mg/kg, 1 d): 6.80 ± 5.27
Damage score of rat retinal photoreceptor cells ([2]; MNU 50 mg/kg, 3 d): 10.04 ± 5.06
Damage score of rat retinal photoreceptor cells ([2]; MNU 50 mg/kg, 7 d): 11.20 ± 5.27
Damage score of rat retinal photoreceptor cells ([2]; MNU 50 mg/kg, 10 d): 11.20 ± 5.27
